These results are taken from patent US20120258975A1, “Potent Small Molecule Inhibitors of Autophagy, and Methods of Use Thereof” (Shanghai Institute of Organic Chemistry, priority 2009, published 2012).

In one assay the test system is PI3P (FYVE-RFP). Nature of the assay: FYVE-RFP spots in H4-FYVE cells. The class given is cell-based. As to conditions: 10 μM; for levels of FYVE-RFP spots: basal and rapamycin treated H4 cells. The procedure: H4-FYVE cells were treated with DMSO (0.1%), MBCQ (10 μM) or C43 (spautin) (10 μM) for indicated time. A, The images were analyzed by fluorescence microscopy and quantified by HCS after fixing in 4% paraformaldehyde and stained with 4,6-diamidino-2-phenylindole (DAPI, 3 μg/mL). Images of 1000 cells for each compound treatment were analyzed by ArrayScan HCS 4.0 Reader with a 20× objective (Cellomics, Pittsburgh, Pa.). B, H4-FYVE cells were treated with DMSO (0.1%), RAPA (0.2 μM) alone, MBCQ (10 μM) or C43 (spautin) (10 μM) with or without RAPA (0.2 uM) for 8 h. The cell lysates were collected for western blotting using anti-RFP and anti-tubulin as a loading control.
The levels of PtdIns3P (PI3P) are known to play a critical role in mediating autophagy (Levine, B., and Klionsky, D. J. (2004). Development by self-digestion: molecular mechanisms and biological functions of autophagy. Dev Cell 6, 463-477). To ask if MBCQ has an effect on PI3P, H4 cells expressing FYVE-RFP were used. FYVE binds specifically to PI3P and is widely used as a marker for cellular levels for PI3P (Gaullier, J. M., Simonsen, A., D'Arrigo, A., Bremnes, B., Stenmark, H., and Aasland, R. (1998). FYVE fingers bind PtdIns(3)P. Nature 394, 432-433).

In a further assay the test system is PtdIns3P. Nature of the assay: Lipid dot blot assay for cellular PtdIns3P. The class given is cell-based, mouse. As to conditions: 10 μM, 3 h; basal and rapamycin treated cells. Here is the method:
FIG. 9 depicts results showing that MBCQ and C43 (spautin) selectively reduce the cellular levels of PtdIns3P. MEF cells were treated with DMSO (0.1%), RAPA (0.2 μM) alone, A, MBCQ (10 μM) or B, C43 (spautin) (10 μM) with or without RAPA (0.2 μM) for 3 h. The cellular PtdIns species were extracted and applied onto polyvinylidene fluoride membrane. The levels of PtdIns3P were detected using GST-PX domain protein and anti-GST antibody.
To further determine the effect of MBCQ on the cellular levels of PtdIns3P, a lipid dot blot assay was used. The cellular PtdIns species were extracted and applied onto polyvinylidene fluoride membrane. The levels of PtdIns3P was detected using GST-PX domain protein and anti-GST antibody. […] Taken together, it was concluded that MBCQ reduces the levels of PtdIns3P.

The next assay relates to bax/bak DKO MEF cells. Nature of the assay: Etoposide induced cell death of bax/bak DKO cells. As to conditions: MBCQ 10 μM; for cell death induced by etoposide: etoposide 8 μM, spautin 10 μM, 3-MA 10 mM, 8 h. The class given is cell-based, mouse. Here is the method:
C, cells were collected for western blotting using anti-LC3 antibody. α-tubulin was used as a control. D-F, Bax/bak DKO cells were treated with spautin (10 μM) or indicated concentration, in the presence of or absent etoposide (8 μM) for 8 h or indicated time. […] F, Cells were collected for western blotting using anti-LC3 antibody. α-tubulin was used as a control.
Autophagy has been proposed to contribute to cell death in a number of apoptotic deficient cell types. For example, bax/bak double deficient mouse embryonic fibroblast cells (DKO mefs) are highly resistant to apoptosis (Wei, M. C., Zong, W. X., Cheng, E. H., Lindsten, T., Panoutsakopoulou, V., Ross, A. J., Roth, K. A., MacGregor, G. R., Thompson, C. B., and Korsmeyer, S. J. (2001). Proapoptotic BAX and BAK: a requisite gateway to mitochondrial dysfunction and death. Science 292, 727-730).

In a further assay the test system is Vps34 complexes. The experiment in a line: Levels of endogenous Beclin1, Vps34, Atg14L in H4 and 293T cells (western blot). The conditions noted are these: for levels of endogenous Beclin1 in the presence of CHX: 293T cells, 6 h, versus CHX alone; for levels of endogenous Beclin1, Vps34 and Atg14L: H4 cells and 293T cells, 10 μM, 3-MA 10 mM.
The next assay has as its system LC3II in liver. The experiment in a line: Autophagy in liver of rapamycin injected mice. As to conditions: rapamycin 10 mg/kg, 40 mg/kg intraperitoneally every hour for 4 h. It is filed as in vivo. The procedure:
FIG. 13 depicts results showing the effect of MBCQ and derivatives in vivo. (A) Mice were injected with rapamycin (10 mg/kg) alone as a positive control, or with C43 or MBCQ (40 mg/kg) intraperitoneally every hour for 4 h and then sacrificed at 5 th h. The autophagy levels in liver were analyzed by western blotting using anti-LC3 antibody. (B) C43 reduces the levels of autophagy induced by cerulein. Rats were injected intraperitoneally with cerulein (50 μg/kg) alone or with C43 (40 mg/kg) hourly for 4 times. The rats were sacrificed at one h after the last injection and the pancreas were isolated for western blotting analysis using anti-LC3 and anti-tubulin (as a control).
To begin to test the effect of MBCQ derivatives in vivo, the ability of MBCQ derivatives to inhibit autophagy in rapamycin injected mice was investigated. Mice were injected with rapamycin (10 mg/kg) alone as a positive control, or with C43 or MBCQ (40 mg/kg) intraperitoneally every hour for 4 h and then sacrificed at the fifth hour. The autophagy levels in liver were then analyzed by western blotting using anti-LC3 antibody. […] Thus, it was determined that C43 and MBCQ are both active in vivo in inhibiting autophagy.

Another assay concerns the target PDE5 (Homo sapiens, UniProt O76074). Nature of the assay: Determination of % inhibition of PDE5 activity. The class given is biochemical.

“Also recorded” adds a separate entry of the source.

Description for Vps34 complexes: Twenty-four hours after the transfection, the cells were treated with indicated compounds for 12 h. The cell lysates were analyzed by western blotting using anti-HA, anti-flag or anti-tubulin. […] The cell lysates were harvested and analyzed by western blotting using: anti-Beclin1, anti-Atg14, anti-Vps34 and anti-UVRAG. Anti-α-tubulin was used as loading controls. […] The cell lysates were harvested and analyzed by western blotting using: anti-Beclin1 and anti-LC3. Anti-α-tubulin was used as loading controls.

With `Fc1ccc(CNc2ncnc3ccc(F)cc23)cc1` [C43, 6-fluoro-N-(4-fluorobenzyl)quinazolin-4-amine], in the assay with PI3P (FYVE-RFP), the “protein levels of FYVE-RFP by western blotting” value is “no effect on the protein levels of FYVE-RFP” and the “levels of FYVE-RFP spots” value is “reduce FYVE-RFP spots”. Further, the “cellular levels of PtdIns3P” value in the assay with PtdIns3P is listed as “selectively reduced the cellular levels of PtdIns3P”. In addition, in the assay on bax/bak DKO MEF cells, the “cell death induced by etoposide” value is “inhibits etoposide induced death”. Further, in the assay with Vps34 complexes, the “levels of endogenous Beclin1 in the presence of CHX” value is listed as “notably lower”; the “levels of endogenous Beclin1, Vps34 and Atg14L” value is “reduce the levels of endogenous Beclin1, Vps34 and Atg14L”. For the same compound, the “levels of LC3II in liver” value in the assay on LC3II in liver is reported as “significantly reduced the levels of LC3II”. In addition, the “inhibiting activity towards PDE5 and other PDEs” value against PDE5 (compared with MBCQ) is on record as “much reduced inhibiting activity”.

Regarding `Clc1ccc2ncnc(NCc3ccc4c(c3)OCO4)c2c1` [MBCQ], the “levels of FYVE-RFP spots” value with PI3P (FYVE-RFP) is “rapidly and effectively reduced the levels of FYVE-RFP spots”. Besides, the “cellular levels of PtdIns3P” value with PtdIns3P is given as “selectively reduced the cellular levels of PtdIns3P”. Moreover, the “levels of LC3II in etoposide treated cells” value with bax/bak DKO MEF cells is “reduced in the presence of MBCQ”. Besides, in the assay on bax/bak DKO MEF cells, the “cell death induced by etoposide” value is given as “significantly reduced cell death; also recorded: inhibits etoposide induced death”. Moreover, the “levels of endogenous Beclin1 in the presence of CHX” value with Vps34 complexes is reported as “notably lower”. Besides, the “levels of endogenous Beclin1, Vps34 and Atg14L” value in the assay on Vps34 complexes was “reduce the levels of endogenous Beclin1, Vps34 and Atg14L”. In the assay on LC3II in liver, the “levels of LC3II in liver” value is “significantly reduced the levels of LC3II”. The “% Inhibition of PDE5 activity, Average” value on PDE5 (Concentration = 0.2 μM) was 54.4%; on PDE5 (Concentration = 2 μM) it was 91.0%; at PDE5 (Concentration = 20 μM), 98.8%.
